Two compounds from patent publication US4695577A, “Anti-hypertensive agents” (University of Miami, priority 1979, dated 1987) can be followed below.

The subject of assay [1] is Blood pressure response to angiotensin I. Nature of the assay: Intravenous effectiveness: blood pressure response to angiotensin I in anesthetized rats. Type of assay: in vivo, rat. Particulars: intravenous 2 μmol/kg. Here is the method:
Rats (190-290 g body weight) were fasted overnight and then anesthetized with intraperitoneal pentobarbital, 50-60 mg/kg. Tracheostomy was performed and the animals were ventilated mechanically. A cannula was inserted into a femoral vein for injection of angiotensin I, and a second cannula was inserted into a common carotid artery for direct measurement of arterial blood pressure. Heparin, 1,000 units, was injected via the femoral vein to prevent coagulation. Blood pressure was measured with a pressure transducer connected to a polygraph. The rats were injected with 400 ng/kg of angiotensin I in 20 μl of 0.9 g % NaCl; an amount of angiotensin I sufficient to raise mean arterial blood pressure by 35 mm Hg. After the responsiveness of a given rat to angiotensin I was established, the named compound at 23 μmole/kg (drug dissolved in 0.15 ml of H2 O plus 10 μl of 1 N NaHCO3 ), was given via a stomach tube. At timed intervals, the effects of 400 ng/kg of angiotensin I on mean arterial blood pressure were tested. Results are shown below:
Anesthetized rats were prepared as described in Example 35. After the responsiveness of a given rat to angiotensin I was established, the named compound, at 2 μmol/kg, in a volume of 15 μl of 0.01 N sodium bicarbonate, was injected via a femoral vein. At timed intervals, the effects of angiotensin I, 400 ng/kg, on mean arterial blood pressure were tested.

The target in assay [2] is T1, human urinary ACE (Homo sapiens, UniProt P12821).
T1 construct: The enzyme preparation was ACE purified from human urine; from tissue; host or cells: human urine
T1 sequence (P12821 30-1232 limits assumed): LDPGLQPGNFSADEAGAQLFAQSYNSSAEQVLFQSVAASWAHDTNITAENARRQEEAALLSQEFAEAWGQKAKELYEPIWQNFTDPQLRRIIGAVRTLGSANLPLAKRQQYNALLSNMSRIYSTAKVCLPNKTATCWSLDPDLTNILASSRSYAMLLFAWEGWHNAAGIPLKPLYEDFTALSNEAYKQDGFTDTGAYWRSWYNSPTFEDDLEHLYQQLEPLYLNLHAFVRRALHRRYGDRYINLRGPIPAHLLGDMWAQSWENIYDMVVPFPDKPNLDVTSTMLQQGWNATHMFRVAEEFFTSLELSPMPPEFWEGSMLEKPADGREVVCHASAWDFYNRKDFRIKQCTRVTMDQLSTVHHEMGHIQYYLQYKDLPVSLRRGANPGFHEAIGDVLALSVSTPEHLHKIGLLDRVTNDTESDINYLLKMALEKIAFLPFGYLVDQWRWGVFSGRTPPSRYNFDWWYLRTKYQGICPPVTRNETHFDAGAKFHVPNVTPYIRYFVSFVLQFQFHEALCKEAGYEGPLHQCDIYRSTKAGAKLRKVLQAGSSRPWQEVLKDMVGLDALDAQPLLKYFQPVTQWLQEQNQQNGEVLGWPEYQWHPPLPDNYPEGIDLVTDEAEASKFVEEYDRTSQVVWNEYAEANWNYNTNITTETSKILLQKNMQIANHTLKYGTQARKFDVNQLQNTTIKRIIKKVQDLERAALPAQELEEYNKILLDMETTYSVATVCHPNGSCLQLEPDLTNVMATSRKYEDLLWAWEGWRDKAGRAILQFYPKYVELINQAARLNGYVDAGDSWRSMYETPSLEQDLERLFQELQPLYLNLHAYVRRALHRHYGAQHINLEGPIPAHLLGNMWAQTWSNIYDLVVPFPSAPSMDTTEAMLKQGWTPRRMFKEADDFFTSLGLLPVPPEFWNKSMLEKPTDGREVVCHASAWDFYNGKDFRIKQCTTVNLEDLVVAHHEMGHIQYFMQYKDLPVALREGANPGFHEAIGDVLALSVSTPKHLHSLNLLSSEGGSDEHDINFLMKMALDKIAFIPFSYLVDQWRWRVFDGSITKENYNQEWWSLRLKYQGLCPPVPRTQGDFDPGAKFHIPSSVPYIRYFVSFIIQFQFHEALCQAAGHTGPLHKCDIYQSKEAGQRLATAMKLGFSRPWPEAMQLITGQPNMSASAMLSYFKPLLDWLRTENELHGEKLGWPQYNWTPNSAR
Nature of the assay: ACE Activity Assay (hydrolysis of Benzoyl-GlyHisLeu). Type of assay: biochemical. Particulars: purified human urinary ACE, in vitro, pH 8.0, 37° C; read-out: I50. The procedure: These factors include the source of enzyme, its purity, the substrate used and its concentration, and the composition of the assay buffer. All I50 data reported herein have been performed with the same assay system and same enzyme (human urinary ACE) and with an approximately 1/2Km level of substrate and are therefore internally consistent.
To initiate the assay, 40 μl of enzyme and 10 μl of water or inhibitor dissolved in water were preincubated for five minutes at 37° C. […] To terminate the reaction, 1 ml of 0.1 M HCl was added, following which 1 ml of ethyl acetate was added. The mixture was agitated on a rotary mixer and centrifuged briefly to separate the phases.
An aliquot, 500 μl, of the ethyl acetate layer was transferred to a liquid scintillation vial containing 10 ml of Riafluor, trademark New England Nuclear Corporation, Boston, Mass. For determination of I50 values, enzyme activity in the presence of inhibitor at a series of different concentrations was compared to activity in the absence of inhibitor.

The structures appear in SMILES notation.

Consider `C[C@H](CSC(=O)[C@H](Cc1ccccc1)NC(=O)OC(C)(C)C)C(=O)N1CCC[C@H]1C(=O)O` [Example 13, N^α -[3-(N^α -Tertiary-Butyloxycarbonyl-L-Phenylalanylthio)-2-D-Methylpropanoyl]-L-Proline], for which the “Blood pressure response to 400 ng/kg angiotensin I” value in assay [1] (3 min) is given as 19 % of control; in assay [1] (9 min), 19 % of control; in assay [1] (13 min), 22 % of control. Moreover, in assay [2], the IC50 was 34 nM.

On to `C[C@H](CSC(=O)[C@H](Cc1ccccc1)NC(=O)C1CCCC1)C(=O)N1CCC[C@H]1C(=O)O` [Example 24, N^α -[3-(N^α -cyclopentylcarbonyl-L-phenylalanylthio)-2-D-methylpropanoyl]-L-proline], for which the IC50 in assay [2] stood at 7.5 nM.
